Data published in US20030032183A1, “Stem cell differentiation” (priority 2001, published 2003).

Assays:
[1] = test system: embryonic stem cells; assay: RT-PCR analysis of insulin (INS) and amylase (AML) transcripts in embryonic stem cells differentiated with retinoic acid; assay type: cell-based; set-up: key to Abundance of Insulin RT-PCR Product (INS) / Abundance of Amylase RT-PCR Product (AML): +: Indicates relative abundance; −: No RT-PCR band observed
Protocol: Embryonic stem cell lines were cultured and spilt 1:8 every three days for 4 passages on gelatin coated Tissue Culture (TC) dishes without Mouse Embryonic Fibroblasts (MEF's) (with 1500 units/ml Lymphocyte Inhibitory Factor (LIF) in media) to remove MEF's from culture. The resulting stem cells were then differentiated as follows:
On day 1, the stem cells were treated with trypsin to break up some aggregation and then suspended in 1% Fetal Calf Serum (FCS) Media (without LIF). The stem cells were then allowed to self-aggregate into embryoid bodies in suspension culture in bacterial petri dishes. On day 3, the cells were given a fresh media change and then split among two bacterial petri dishes (sample and control). A solution containing 1 μM retinoic acid was intermixed with the sample and both the control (no retinoic acid) and the sample were allowed to sit at 37° C. Fresh media were supplied at day 5 (with fresh 1 μM retinoic acid for the treated sample). At day 7, fresh media was supplied for both, with no retinoic acid (retinoic acid only present from days 3 to 7).
Fresh media was supplied again on day 9. On […] the cells were again trypsinized and then placed into TC dishes with 10% FCS media (no LIF). Small aliquots were taken at various times (days 14, 17, 19, 22, and 25) from the cultures and were saved for later analysis by reverse transcriptase polymerase chain reaction (RT-PCR).
On day 14, the media was changed for the two groups of cells (10% FCS) in each population (control and sample). On day 17, the media was changed again.
On day 19, adherent cells were gently blown off by pipetting, then trypsinized and resuspended in 10% FCS in bacterial petri dish suspension cultures. On days 22 and 25, the remaining cells were collected and a portion retained for RT-PCR analysis.
All culturing from day 1 forward was performed in 25 millimolar (mM) glucose (high glucose) until after day 19, when it was changed to 5.5 millimolar glucose (lower glucose) The glucose concentrations ranged from 30 mM to 10 mM on the high end and 0.5 mM-5 mM on the low end.
Total RNA from each aliquot collected above was purified as instructed with a Qiagen RNeasy® Mini purification kit (obtained commercially from Qiagen Inc.). The presence of specific RNA transcripts (i.e. insulin) was determined by RT-PCR using gene specific oligonucleotide primers as instructed with a Qiagen® OneStep RT-PCR kit (obtained commercially from Qiagen Inc.). Total RNA was prepared from cultures of differentiating ES cells. RT-PCR analyses were performed with appropriate oligonucleotide primers (INS-insulin) or the pancreatic specific product amylase (AML).

[2] = test system: embryoid bodies; assay: Immunoperoxidase cytochemistry for insulin in suspended embryoid bodies; assay type: cell-based; settings: retinoic acid days 3 to 7; suspension culture; day 32; versus control lacking primary antibody; FIG. 4
Protocol: Embryonic stem cell lines were cultured as described above for Examples 1-10 on gelatin coated Tissue Culture (TC) dishes without Mouse Embryonic Fibroblasts (MEF's) (with 1500 units/ml Lymphocyte Inhibitory Factor (LIF) in media) to remove MEF's from culture. The resulting stem cells were then differentiated as described above (with retinoic acid during treatment during days 3 to 7) except that the formed embryoid bodies were maintained in suspension for the duration of the experiment as opposed to being separated and adhered to TC dishes. All culturing from day 1 forward was performed in 25 millimolar (mM) glucose (high glucose) until after day 19, when it was changed to 5.5 millimolar glucose (physiological glucose).

[3] = Ex. 10, lane 5, 1 μM retinoic acid days 3 to 7, day 25, glucose 5.5 mM

Q: CC1=C(/C=C/C(C)=C/C=C/C(C)=C/C(=O)O)C(C)(C)CCC1 [retinoic acid] was tested. Which “Abundance of Insulin RT-PCR Product (INS)” value ([1]; Ex. 9, lane 4, 1 μM retinoic acid days 3 to 7, day 22, glucose 5.5 mM) did it give?
A: +

Q: And the “Abundance of Amylase RT-PCR Product (AML)” value [1, 3]?
A: −

Q: What about the “Abundance of Insulin RT-PCR Product (INS)” value [1, 3] of the same molecule?
A: −

Q: What about the “Formation of insulin-producing cells (correctly sized insulin-specific RT-PCR band)” value ([1]; stem cells treated with retinoic acid, aliquots at days 14, 17, 19 and 22, FIG. 1) of the same molecule?
A: insulin-producing cells resulted

Q: What about the “Insulin protein in embryoid bodies by specific antibody staining” value [2] of the same molecule?
A: produce insulin
